In patent US8629293B2, “Process for the preparation of FE(III) chelates of N,N′-DI(2-hydroxybenzyl)-ethylenediamine-N,N′-diacetic acid and its derivatives” (Przedsiebiorstwo Produkcyjno-Consultingowe Adob SP. Z O.O. …, priority 2009, dated 2014):

Key:
[1] = system: 7-year old trees of flat peach (Prunus persica var. platycarpa) grafted on the GF677 root stock with visible symptoms of chlorosis; test: Field test, testing field No. 2: SPAD index of leaves; format: in vivo; details: for ΔSPAD index of leaves: 0.9 g of the chelated Fe/tree
Experimental: (§1) The comparison included two chelate agents for supplementing iron deficiencies: HBED/Fe^3+ as well as the commercially available, highly purified EDDHA/Fe^3+. The studies were carried out on two fields with the soil having an alkaline pH as well as a high concentration of calcium ions. The chelates were applied directly to the soil by means of a dripper immersed in the soil.
7-year old trees of flat peach (Prunus persica var. platycarpa) grafted on the GF677 root stock with visible symptoms of chlorosis
The chelates were applied at the following concentrations: • EDDHA/Fe^3+: high concentration (0.9 g of the chelated Fe/tree) • HBED/Fe^3+: high concentration (0.9 g of the chelated Fe/tree) • control trial: without Fe
The chelate solutions were dosed directly to the ground below the dripper. In this case, the whole dose of the chelates were applied in one portion. The symptoms of chlorosis were visible at the beginning of the experiment.
The samples for determination of the SPAD index of leaves were taken approximately every two weeks (on day 0, 20, 40 and 63 after application of the chelates).

[2] = system: 10-year old nectarine trees, cultivar "Zephyr" grafted on the GF677 root stock; test: Field test, testing field No. 1: SPAD index; format: in vivo
Experimental: as §1
10-year old nectarine trees, cultivar “Zephyr” grafted on the GF677 root stock
The chelates were applied at the following concentrations: • EDDHA/Fe^3+: high concentration (0.9 g of the chelated Fe/tree) • HBED/Fe^3+: low concentration (0.45 g of the chelated Fe/tree) • HBED/Fe^3+: high concentration (0.9 g of the chelated Fe/tree) • control trial: without Fe
The chelate solutions of various concentrations were applied in three portions (50%, 30%, and finally 20% of the whole dose, respectively) directly to the ground below the dripper.
The SPAD index was measured approximately every two weeks: on day 14, 29, 44, 61, 88 and 99 after application of the chelates.

[3] = 0.45 g of the chelated Fe/tree, day 14 after application
[4] = 0.45 g of the chelated Fe/tree, day 29 after application
[5] = 0.45 g of the chelated Fe/tree, day 44 after application
[6] = 0.45 g of the chelated Fe/tree, day 61 after application
[7] = 0.45 g of the chelated Fe/tree, day 88 after application
[8] = 0.45 g of the chelated Fe/tree, day 99 after application
[9] = 0.9 g of the chelated Fe/tree, day 14 after application
[10] = 0.9 g of the chelated Fe/tree, day 29 after application
[11] = 0.9 g of the chelated Fe/tree, day 44 after application
[12] = 0.9 g of the chelated Fe/tree, day 61 after application
[13] = 0.9 g of the chelated Fe/tree, day 88 after application
[14] = 0.9 g of the chelated Fe/tree, day 99 after application

O=C([O-])CN(CCN(CC(=O)[O-])Cc1ccccc1[O-])Cc1ccccc1[O-].[Fe+3].[Na+] [HBED/Fe^3+]
ΔSPAD index of leaves ([1]; day 0 after application): 0 | ΔSPAD index of leaves ([1]; day 20 after application): 11.50 | ΔSPAD index of leaves ([1]; day 40 after application): 16.75 | ΔSPAD index of leaves ([1]; day 63 after application): 16.23 | ΔSPAD index compared with EDDHA/Fe3+ ([1]; Table 5): does not show any significant differences | Use against iron deficiencies ([1]; soils of alkaline pH and high concentration of calcium ions): may be successfully used against iron deficiencies | The SPAD index of the fructifying branches [2, 3]: 36.46 | The SPAD index of the non-fructifying branches [2, 3]: 34.39 | The SPAD index of the fructifying branches [2, 4]: 37.82 | The SPAD index of the non-fructifying branches [2, 4]: 36.46 | The SPAD index of the fructifying branches [2, 5]: 37.09 | The SPAD index of the non-fructifying branches [2, 5]: 34.46 | The SPAD index of the fructifying branches [2, 6]: 36.54 | The SPAD index of the non-fructifying branches [2, 6]: 34.69 | The SPAD index of the fructifying branches [2, 7]: 38.64 | The SPAD index of the non-fructifying branches [2, 7]: 37.46 | The SPAD index of the fructifying branches [2, 8]: 37.36 | The SPAD index of the non-fructifying branches [2, 8]: 36.54 | The SPAD index of the fructifying branches [2, 9]: 35.45 | The SPAD index of the non-fructifying branches [2, 9]: 35.69 | The SPAD index of the fructifying branches [2, 10]: 37.91 | The SPAD index of the non-fructifying branches [2, 10]: 35.77 | The SPAD index of the fructifying branches [2, 11]: 37.27 | The SPAD index of the non-fructifying branches [2, 11]: 36.54 | The SPAD index of the fructifying branches [2, 12]: 37.64 | The SPAD index of the non-fructifying branches [2, 12]: 33.69 | The SPAD index of the fructifying branches [2, 13]: 39.73 | The SPAD index of the non-fructifying branches [2, 13]: 39.00 | The SPAD index of the fructifying branches [2, 14]: 37.27 | The SPAD index of the non-fructifying branches [2, 14]: 37.46 | SPAD index values compared with EDDHA/Fe3+ ([2]; fructifying and non-fructifying branches, Tables 3 and 4): comparable | Effect on symptoms of chlorosis ([2]; testing field No. 1): effectively reduces the symptoms of chlorosis
